According to PubChem BioAssay (NCI):
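Where inhibition never reached the appropriate level, the endpoint shown equals the highest concentration tested. Otherwise, values were interpolated linearly from a five-concentration, 48-hour dose response in 96-well plates. Definition used: TGI = concentration required for complete inhibition of growth.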

Legend:
Experiment in all cases: growth of human tumour cells (NCI), 48 h
[1] = test system: SN12C renal
[2] = test system: UACC-257 melanoma
[3] = test system: HOP-92 NSCLC
[4] = test system: OVCAR-3 ovarian
[5] = test system: SK-MEL-28 melanoma
[6] = test system: SK-MEL-5 melanoma
[7] = test system: MDA-N
[8] = test system: BT-549 breast
[9] = test system: HS 578T breast
[10] = test system: IGROV1 ovarian
[11] = test system: NCI/ADR-RES ovarian
[12] = test system: SF-268 CNS
[13] = test system: A498 renal
[14] = test system: COLO 205 colon
[15] = test system: HCT-116 colon
[16] = test system: SF-539 CNS
[17] = test system: ACHN renal
[18] = test system: OVCAR-5 ovarian
[19] = test system: TK-10 renal
[20] = test system: UACC-62 melanoma
[21] = test system: NCI-H226 lung
[22] = test system: SK-MEL-2 melanoma
[23] = test system: MDA-MB-435
[24] = test system: NCI-H23 lung
[25] = test system: OVCAR-4 ovarian
[26] = test system: LOX IMVI melanoma
[27] = test system: SW-620 colon
[28] = test system: HT29 colon
[29] = test system: MDA-MB-231 breast
[30] = test system: SK-OV-3 ovarian
[31] = test system: SNB-75 CNS
[32] = test system: EKVX NSCLC
[33] = test system: HOP-62 NSCLC
[34] = test system: MALME-3M melanoma
[35] = test system: MCF7 breast
[36] = test system: HCC-2998 colon
[37] = test system: M14 melanoma
[38] = test system: SNB-19 CNS
[39] = test system: K-562 leukemia
[40] = test system: NCI-H522 lung
[41] = test system: KM12 colon
[42] = test system: CAKI-1 renal
[43] = test system: PC-3 prostate
[44] = test system: NCI-H460 lung
[45] = test system: RXF 393 renal
[46] = test system: RPMI-8226 leukemia
[47] = test system: HCT-15 colon
[48] = test system: UO-31 renal
[49] = test system: SF-295 CNS
[50] = test system: A549 NSCLC
[51] = test system: OVCAR-8 ovarian
[52] = test system: U251 CNS
[53] = test system: DU-145 prostate
[54] = test system: T-47D breast
[55] = test system: 786-0 renal
[56] = test system: SR leukemia
[57] = test system: MOLT-4 leukemia
[58] = test system: HL-60(TB) leukemia
[59] = test system: CCRF-CEM leukemia

O=C(O)CCc1nc(-c2ccccc2-n2cccc2)no1
TGI [1]: > 100 µM | TGI [2]: > 100 µM | TGI [3]: > 100 µM | TGI [4]: 86.3 µM | TGI [5]: > 100 µM | TGI [6]: > 100 µM | TGI [7]: > 100 µM | TGI [8]: > 100 µM | TGI [9]: > 100 µM | TGI [10]: > 100 µM | TGI [11]: > 100 µM | TGI [12]: > 100 µM | TGI [13]: > 100 µM | TGI [14]: > 100 µM | TGI [15]: > 100 µM | TGI [16]: > 100 µM | TGI [17]: > 100 µM | TGI [18]: > 100 µM | TGI [19]: > 100 µM | TGI [20]: > 100 µM | TGI [21]: > 100 µM | TGI [22]: > 100 µM | TGI [23]: 46.3 µM | TGI [24]: > 100 µM | TGI [25]: > 100 µM | TGI [26]: > 100 µM | TGI [27]: > 100 µM | TGI [28]: > 100 µM | TGI [29]: > 100 µM | TGI [30]: > 100 µM | TGI [31]: > 100 µM | TGI [32]: > 100 µM | TGI [33]: > 100 µM | TGI [34]: > 100 µM | TGI [35]: > 100 µM | TGI [36]: > 100 µM | TGI [37]: > 100 µM | TGI [38]: > 100 µM | TGI [39]: > 100 µM | TGI [40]: > 100 µM | TGI [41]: > 100 µM | TGI [42]: > 100 µM | TGI [43]: > 100 µM | TGI [44]: > 100 µM | TGI [45]: > 100 µM | TGI [46]: > 100 µM | TGI [47]: > 100 µM | TGI [48]: > 100 µM | TGI [49]: > 100 µM | TGI [50]: > 100 µM | TGI [51]: > 100 µM | TGI [52]: > 100 µM | TGI [53]: > 100 µM | TGI [54]: > 100 µM | TGI [55]: > 100 µM | TGI [56]: > 100 µM

Cc1c(O)c(=O)ccn1CCc1ccc(O)cc1
TGI [2]: 54.8 µM | TGI [3]: 57 µM | TGI [4]: 63.4 µM | TGI [5]: > 100 µM | TGI [6]: 51.7 µM | TGI [7]: > 100 µM | TGI [8]: > 100 µM | TGI [9]: 69.6 µM | TGI [11]: 59.5 µM | TGI [12]: 33.3 µM | TGI [14]: > 100 µM | TGI [15]: > 100 µM | TGI [16]: 62.5 µM | TGI [17]: > 100 µM | TGI [18]: > 100 µM | TGI [19]: > 100 µM | TGI [20]: 12.8 µM | TGI [23]: > 100 µM | TGI [24]: > 100 µM | TGI [25]: 76.2 µM | TGI [26]: 53.9 µM | TGI [57]: > 100 µM | TGI [27]: > 100 µM | TGI [28]: > 100 µM | TGI [29]: 50.3 µM | TGI [30]: > 100 µM | TGI [58]: 81.3 µM | TGI [59]: 42 µM | TGI [32]: 93.3 µM | TGI [33]: > 100 µM | TGI [34]: 65.8 µM | TGI [35]: 58.2 µM | TGI [37]: 53 µM | TGI [38]: > 100 µM | TGI [39]: > 100 µM | TGI [41]: > 100 µM | TGI [42]: 32 µM | TGI [43]: > 100 µM | TGI [44]: 52.9 µM | TGI [46]: 45.4 µM | TGI [47]: > 100 µM | TGI [49]: > 100 µM | TGI [50]: > 100 µM | TGI [51]: > 100 µM | TGI [52]: > 100 µM | TGI [53]: > 100 µM | TGI [54]: > 100 µM | TGI [55]: 27.8 µM | TGI [56]: > 100 µM

O=C1N(c2ccccc2)C(=S)/C(=C/c2ccc(Cl)cc2)N1c1ccc(Cl)cc1
TGI [1]: > 100 µM | TGI [2]: > 100 µM | TGI [4]: > 100 µM | TGI [5]: > 100 µM | TGI [6]: > 100 µM | TGI [7]: > 100 µM | TGI [8]: > 100 µM | TGI [9]: > 100 µM | TGI [10]: > 100 µM | TGI [11]: > 100 µM | TGI [12]: > 100 µM | TGI [13]: > 100 µM | TGI [14]: > 100 µM | TGI [15]: > 100 µM | TGI [16]: 41.2 µM | TGI [17]: 49.1 µM | TGI [18]: > 100 µM | TGI [19]: 89.8 µM | TGI [20]: 53.3 µM | TGI [22]: > 100 µM | TGI [23]: > 100 µM | TGI [24]: > 100 µM | TGI [25]: > 100 µM | TGI [26]: 76.5 µM | TGI [57]: 13.5 µM | TGI [27]: > 100 µM | TGI [28]: > 100 µM | TGI [29]: 90.5 µM | TGI [30]: 95.7 µM | TGI [58]: 74.4 µM | TGI [31]: 56.2 µM | TGI [59]: 61.1 µM | TGI [32]: > 100 µM | TGI [33]: > 100 µM | TGI [34]: 63.9 µM | TGI [35]: > 100 µM | TGI [36]: > 100 µM | TGI [37]: > 100 µM | TGI [38]: > 100 µM | TGI [39]: > 100 µM | TGI [40]: 38.4 µM | TGI [41]: > 100 µM | TGI [42]: > 100 µM | TGI [43]: > 100 µM | TGI [44]: > 100 µM | TGI [45]: > 100 µM | TGI [46]: 52.5 µM | TGI [47]: > 100 µM | TGI [48]: > 100 µM | TGI [49]: > 100 µM | TGI [50]: > 100 µM | TGI [51]: > 100 µM | TGI [52]: 96.6 µM | TGI [53]: > 100 µM | TGI [54]: > 100 µM | TGI [55]: 64.2 µM | TGI [56]: 15.5 µM

CCOC(=O)/C=C/[C@@H](CC)O[Si](C(C)C)(C(C)C)C(C)C
TGI [2]: > 100 µM | TGI [3]: > 100 µM | TGI [4]: > 100 µM | TGI [6]: > 100 µM | TGI [7]: > 100 µM | TGI [8]: > 100 µM | TGI [9]: > 100 µM | TGI [10]: > 100 µM | TGI [11]: > 100 µM | TGI [12]: > 100 µM | TGI [13]: > 100 µM | TGI [14]: > 100 µM | TGI [15]: > 100 µM | TGI [16]: > 100 µM | TGI [17]: > 100 µM | TGI [18]: > 100 µM | TGI [19]: > 100 µM | TGI [20]: > 100 µM | TGI [21]: > 100 µM | TGI [22]: > 100 µM | TGI [23]: > 100 µM | TGI [24]: > 100 µM | TGI [25]: > 100 µM | TGI [26]: > 100 µM | TGI [57]: > 100 µM | TGI [27]: > 100 µM | TGI [28]: > 100 µM | TGI [29]: > 100 µM | TGI [30]: > 100 µM | TGI [31]: > 100 µM | TGI [59]: > 100 µM | TGI [32]: > 100 µM | TGI [33]: > 100 µM | TGI [34]: > 100 µM | TGI [35]: > 100 µM | TGI [36]: > 100 µM | TGI [38]: > 100 µM | TGI [39]: > 100 µM | TGI [40]: > 100 µM | TGI [41]: > 100 µM | TGI [42]: > 100 µM | TGI [43]: > 100 µM | TGI [44]: > 100 µM | TGI [46]: 94.6 µM | TGI [47]: > 100 µM | TGI [48]: > 100 µM | TGI [49]: > 100 µM | TGI [50]: > 100 µM | TGI [51]: > 100 µM | TGI [52]: > 100 µM | TGI [53]: > 100 µM | TGI [54]: > 100 µM | TGI [55]: > 100 µM | TGI [56]: > 100 µM
